From patent US20090098130A1, “GLUCAGON-LIKE PROTEIN-1 RECEPTOR (GLP-1R) AGONIST COMPOUNDS” (priority 2007, published 2009)
Non-standard residues stand in square brackets, D forms with d. Residues, ends and D or L forms follow the SMILES beside them. Aib = CC(C)(N)C(=O)O

test system: pancreatic β cells; assay: glucose-stimulated insulin secretion (GSIS) assay; type: cell-based; details: GA targeting agent-linker conjugate; GSIS assay in vitro
Experimental: Briefly, glucose and GA targeting peptide was added at various concentrations to pancreatic β cell cultures, and insulin secretion was detected by measuring insulin levels over time. EC50 was calculated for each peptide.
The ability of these GA targeting agent-linker conjugates to stimulate […] secretion in vitro was measured using the GSIS assay described in Example 27. […] Each of these peptides contained a side-chain modified Lys residue according to the scheme illustrated in FIG. 30 at a different position.

EC50 [µM] | Structure (SMILES)
< 10 | CC[C@H](C)[C@H](NC(=O)[C@H](Cc1ccccc1)NC(=O)[C@H](CCC(=O)O)NC(=O)[C@H](CCCCN)NC(=O)[C@H](C)NC(=O)[C@H](C)NC(=O)[C@H](CCC(N)=O)NC(=O)CNC(=O)[C@H](CCC(=O)O)NC(=O)[C@H](CC(C)C)NC(=O)[C@H](Cc1ccc(O)cc1)NC(=O)[C@H](CO)NC(=O)[C@H](CO)NC(=O)[C@@H](NC(=O)[C@H](CC(=O)O)NC(=O)[C@H](CO)NC(=O)[C@@H](NC(=O)[C@H](Cc1ccccc1)NC(=O)[C@@H](NC(=O)CNC(=O)[C@H](CCC(=O)O)NC(=O)CNC(=O)[C@H](Cc1c[nH]cn1)NC(=O)CCOCCOCCOCCOCCNC(=O)CCCC(=O)Nc1ccc(CCC(=O)CC(C)=O)cc1)[C@@H](C)O)[C@@H](C)O)C(C)C)C(=O)N[C@@H](C)C(=O)N[C@@H](Cc1c[nH]c2ccccc12)C(=O)N[C@@H](CC(C)C)C(=O)N[C@H](C(=O)N[C@@H](CCCCN)C(=O)NCC(=O)N[C@@H](CCCNC(=N)N)C(=O)N[C@@H](CCCCN)C(N)=O)C(C)C
< 10 | CC/C=C/CC(=O)N[C@@H](Cc1c[nH]cn1)C(=O)NC(C)(C)C(=O)N[C@@H](CCC(=O)O)C(=O)NCC(=O)N[C@H](C(=O)N[C@@H](Cc1ccccc1)C(=O)N[C@H](C(=O)N[C@@H](CO)C(=O)N[C@@H](CC(=O)O)C(=O)N[C@H](C(=O)N[C@@H](CO)C(=O)N[C@@H](CO)C(=O)N[C@@H](Cc1ccc(O)cc1)C(=O)N[C@@H](CC(C)C)C(=O)N[C@@H](CCC(=O)O)C(=O)N[C@@H](CCC(=O)O)C(=O)N[C@@H](CCC(N)=O)C(=O)N[C@@H](C)C(=O)N[C@H](C(=O)N[C@@H](CCCCN)C(=O)N[C@@H](CCC(=O)O)C(=O)N[C@@H](Cc1ccccc1)C(=O)N[C@H](C(=O)N[C@@H](C)C(=O)N[C@@H](Cc1c[nH]c2ccccc12)C(=O)N[C@@H](CC(C)C)C(=O)N[C@H](C(=O)N[C@@H](CCCCN)C(=O)NC(C)(C)C(=O)N[C@@H](CCCNC(=N)N)C(N)=O)[C@@H](C)CC)[C@@H](C)CC)C(C)C)C(C)C)[C@@H](C)O)[C@@H](C)O

same assay, conditions: GA targeting peptide; insulin secretion from pancreatic β cell cultures in vitro with glucose

Structure (SMILES) | EC50 [µM]
CC[C@H](C)[C@H](NC(=O)[C@H](Cc1ccccc1)NC(=O)[C@H](CCC(=O)O)NC(=O)[C@H](CCCCN)NC(=O)[C@H](C)NC(=O)[C@H](C)NC(=O)[C@H](CCC(N)=O)NC(=O)CNC(=O)[C@H](CCC(=O)O)NC(=O)[C@H](Cc1ccccc1)NC(=O)[C@H](Cc1ccc(O)cc1)NC(=O)[C@H](CO)NC(=O)[C@H](CO)NC(=O)[C@@H](NC(=O)[C@H](CC(=O)O)NC(=O)[C@H](CO)NC(=O)[C@@H](NC(=O)[C@H](Cc1ccccc1)NC(=O)[C@@H](NC(=O)CNC(=O)[C@H](CCC(=O)O)NC(=O)C(C)(C)NC(=O)[C@@H](N)Cc1c[nH]cn1)[C@@H](C)O)[C@@H](C)O)C(C)C)C(=O)N[C@@H](C)C(=O)N[C@@H](Cc1c[nH]c2ccccc12)C(=O)N[C@@H](CC(C)C)C(=O)N[C@H](C(=O)N[C@@H](CCCCN)C(=O)NC(C)(C)C(=O)N[C@@H](CCCNC(=N)N)C(N)=O)C(C)C [SEQ ID NO: 42] (H-H[Aib]EGTFTSDVSSYFEGQAAKEFIAWLVK[Aib]R-NH2) | < 10
CC[C@H](C)[C@H](NC(=O)[C@H](Cc1ccccc1)NC(=O)[C@H](CCC(=O)O)NC(=O)[C@H](CCCCN)NC(=O)[C@H](C)NC(=O)[C@H](C)NC(=O)[C@H](CCC(N)=O)NC(=O)CNC(=O)[C@H](CCC(=O)O)NC(=O)[C@H](Cc1ccc(O)cc1)NC(=O)[C@H](Cc1ccc(O)cc1)NC(=O)[C@H](CO)NC(=O)[C@H](CO)NC(=O)[C@@H](NC(=O)[C@H](CC(=O)O)NC(=O)[C@H](CO)NC(=O)[C@@H](NC(=O)[C@H](Cc1ccccc1)NC(=O)[C@@H](NC(=O)CNC(=O)[C@H](CCC(=O)O)NC(=O)C(C)(C)NC(=O)[C@@H](N)Cc1c[nH]cn1)[C@@H](C)O)[C@@H](C)O)C(C)C)C(=O)N[C@@H](C)C(=O)N[C@@H](Cc1c[nH]c2ccccc12)C(=O)N[C@@H](CC(C)C)C(=O)N[C@H](C(=O)N[C@@H](CCCCN)C(=O)NC(C)(C)C(=O)N[C@@H](CCCNC(=N)N)C(N)=O)C(C)C [SEQ ID NO: 43] (H-H[Aib]EGTFTSDVSSYYEGQAAKEFIAWLVK[Aib]R-NH2) | < 10
CC[C@H](C)[C@H](NC(=O)[C@H](Cc1ccccc1)NC(=O)[C@H](CCC(=O)O)NC(=O)[C@H](CCCCN)NC(=O)[C@H](C)NC(=O)[C@H](C)NC(=O)[C@H](CCC(N)=O)NC(=O)CNC(=O)[C@H](CCC(=O)O)NC(=O)[C@H](CC(C)C)NC(=O)[C@H](Cc1ccc(O)cc1)NC(=O)[C@H](CO)NC(=O)[C@H](CO)NC(=O)[C@@H](NC(=O)[C@H](CC(=O)O)NC(=O)[C@H](CO)NC(=O)[C@@H](NC(=O)[C@H](Cc1ccccc1)NC(=O)[C@@H](NC(=O)CNC(=O)[C@H](CCC(=O)O)NC(=O)[C@H](C)NC(=O)[C@@H](N)Cc1c[nH]cn1)[C@@H](C)O)[C@@H](C)O)C(C)C)C(=O)N[C@@H](C)C(=O)N[C@@H](Cc1c[nH]c2ccccc12)C(=O)N[C@@H](CC(C)C)C(=O)N[C@H](C(=O)N[C@@H](CCCCN)C(=O)NCC(=O)N[C@@H](CCCNC(=N)N)C(N)=O)C(C)C [SEQ ID NO: 1, reference compound] | < 10

Next, values leading:

EC50 [µM] | Structure (SMILES)
< 10 | CC[C@H](C)[C@H](NC(=O)[C@H](Cc1ccccc1)NC(=O)[C@H](CCC(=O)O)NC(=O)[C@H](CCCCN)NC(=O)[C@@H](NC(=O)[C@H](C)NC(=O)[C@H](CCC(N)=O)NC(=O)[C@H](CCC(=O)O)NC(=O)[C@H](CCC(=O)O)NC(=O)[C@H](Cc1ccccc1)NC(=O)[C@H](Cc1ccc(O)cc1)NC(=O)[C@H](CO)NC(=O)[C@H](CO)NC(=O)[C@@H](NC(=O)[C@H](CC(=O)O)NC(=O)[C@H](CO)NC(=O)[C@@H](NC(=O)[C@H](Cc1ccccc1)NC(=O)[C@@H](NC(=O)CNC(=O)[C@H](CCC(=O)O)NC(=O)C(C)(C)NC(=O)[C@@H](N)Cc1c[nH]cn1)[C@@H](C)O)[C@@H](C)O)C(C)C)C(C)C)C(=O)N[C@@H](C)C(=O)N[C@@H](Cc1c[nH]c2ccccc12)C(=O)N[C@@H](CC(C)C)C(=O)N[C@H](C(=O)N[C@@H](CCCCN)C(=O)NC(C)(C)C(=O)N[C@@H](CCCNC(=N)N)C(N)=O)[C@@H](C)CC [SEQ ID NO: 58] (H-H[Aib]EGTFTSDVSSYFEEQAVKEFIAWLIK[Aib]R-NH2)
< 10 | CC[C@H](C)[C@H](NC(=O)[C@H](Cc1ccccc1)NC(=O)[C@H](CCC(=O)O)NC(=O)[C@H](CCCNC(=N)N)NC(=O)[C@H](C)NC(=O)[C@H](C)NC(=O)[C@H](CCC(N)=O)NC(=O)CNC(=O)[C@H](CCC(=O)O)NC(=O)[C@H](CC(C)C)NC(=O)[C@H](Cc1ccc(O)cc1)NC(=O)[C@H](CO)NC(=O)[C@H](CO)NC(=O)[C@@H](NC(=O)[C@H](CC(=O)O)NC(=O)[C@H](CO)NC(=O)[C@@H](NC(=O)[C@H](Cc1ccccc1)NC(=O)[C@@H](NC(=O)CNC(=O)[C@H](CCC(=O)O)NC(=O)C(C)(C)NC(=O)[C@@H](N)Cc1c[nH]cn1)[C@@H](C)O)[C@@H](C)O)C(C)C)C(=O)N[C@@H](C)C(=O)N[C@@H](Cc1c[nH]c2ccccc12)C(=O)N[C@@H](CC(C)C)C(=O)N[C@H](C(=O)N[C@@H](CCCCN)C(=O)NC(C)(C)C(=O)N[C@@H](CCCNC(=N)N)C(N)=O)C(C)C [SEQ ID NO: 51] (H-H[Aib]EGTFTSDVSSYLEGQAAREFIAWLVK[Aib]R-NH2)
< 10 | CC[C@H](C)[C@H](NC(=O)[C@H](Cc1ccccc1)NC(=O)[C@H](CCC(=O)O)NC(=O)[C@H](CCCCN)NC(=O)[C@@H](NC(=O)[C@H](C)NC(=O)[C@H](CCC(N)=O)NC(=O)[C@H](CCC(=O)O)NC(=O)[C@H](CCC(=O)O)NC(=O)[C@H](CC(C)C)NC(=O)[C@H](Cc1ccc(O)cc1)NC(=O)[C@H](CO)NC(=O)[C@H](CO)NC(=O)[C@@H](NC(=O)[C@H](CC(=O)O)NC(=O)[C@H](CO)NC(=O)[C@@H](NC(=O)[C@H](Cc1ccccc1)NC(=O)[C@@H](NC(=O)CNC(=O)[C@H](CCC(=O)O)NC(=O)C(C)(C)NC(=O)[C@@H](N)Cc1c[nH]cn1)[C@@H](C)O)[C@@H](C)O)C(C)C)C(C)C)C(=O)N[C@@H](C)C(=O)N[C@@H](Cc1c[nH]c2ccccc12)C(=O)N[C@@H](CC(C)C)C(=O)N[C@H](C(=O)N[C@@H](CCCNC(=N)N)C(=O)NC(C)(C)C(=O)N[C@@H](CCCNC(=N)N)C(N)=O)[C@@H](C)CC [SEQ ID NO: 61] (H-H[Aib]EGTFTSDVSSYLEEQAVKEFIAWLIR[Aib]R-NH2)
< 10 | CC[C@H](C)[C@H](NC(=O)[C@H](Cc1ccccc1)NC(=O)[C@H](CCC(=O)O)NC(=O)[C@H](CCCCN)NC(=O)[C@H](C)NC(=O)[C@H](C)NC(=O)[C@H](CCC(N)=O)NC(=O)[C@H](CC(=O)O)NC(=O)[C@H](CCC(=O)O)NC(=O)[C@H](CC(C)C)NC(=O)[C@H](Cc1ccc(O)cc1)NC(=O)[C@H](CO)NC(=O)[C@H](CO)NC(=O)[C@@H](NC(=O)[C@H](CC(=O)O)NC(=O)[C@H](CO)NC(=O)[C@@H](NC(=O)[C@H](Cc1ccccc1)NC(=O)[C@@H](NC(=O)CNC(=O)[C@H](CCC(=O)O)NC(=O)C(C)(C)NC(=O)[C@@H](N)Cc1c[nH]cn1)[C@@H](C)O)[C@@H](C)O)C(C)C)C(=O)N[C@@H](C)C(=O)N[C@@H](Cc1c[nH]c2ccccc12)C(=O)N[C@@H](CC(C)C)C(=O)N[C@H](C(=O)N[C@@H](CCCCN)C(=O)NC(C)(C)C(=O)N[C@@H](CCCNC(=N)N)C(N)=O)C(C)C [SEQ ID NO: 46] (H-H[Aib]EGTFTSDVSSYLEDQAAKEFIAWLVK[Aib]R-NH2)
< 10 | CC[C@H](C)[C@H](NC(=O)[C@H](Cc1ccccc1)NC(=O)[C@H](CCC(=O)O)NC(=O)[C@H](CCCCN)NC(=O)[C@H](C)NC(=O)[C@H](C)NC(=O)[C@H](CCC(N)=O)NC(=O)CNC(=O)[C@H](CCC(=O)O)NC(=O)[C@H](CC(C)C)NC(=O)[C@H](Cc1ccc(O)cc1)NC(=O)[C@H](CO)NC(=O)[C@H](CO)NC(=O)[C@@H](NC(=O)[C@H](CC(=O)O)NC(=O)[C@H](CO)NC(=O)[C@@H](NC(=O)[C@H](Cc1ccccc1)NC(=O)[C@@H](NC(=O)CNC(=O)[C@H](CCC(=O)O)NC(=O)C(C)(C)NC(=O)[C@@H](N)Cc1c[nH]cn1)[C@@H](C)O)[C@@H](C)O)C(C)C)C(=O)N[C@@H](C)C(=O)N[C@@H](Cc1ccccc1)C(=O)N[C@@H](CC(C)C)C(=O)N[C@H](C(=O)N[C@@H](CCCCN)C(=O)NC(C)(C)C(=O)N[C@@H](CCCNC(=N)N)C(N)=O)C(C)C [SEQ ID NO: 53]
